Measurements as given in patent publication US8815499B2, “In situ detoxification of fermentation inhibitors with reducing agents” (priority 2009, dated 2014).
Like-named read-outs stand apart in the source and are kept apart here.

Columns and labels:
[1] = tested on: baker's yeast (Saccharomyces cerevisiae); format: cell-based; details: for Glucose consumption rates and amounts of ethanol produced: FIGS. 1 and 2
Experimental: The pH of the sugarcane bagass and spruce hydrolysates were adjusted to 5.5 with a 5 M solution of sodium hydroxide. The conditioning of each hydrolysate was performed in eight 100-mL glass vessels equipped with magnetic stirrer bars. 26 mL hydrolysate was added to all vessels, and the vessels were placed on a magnetic stirrer plate (IKA-Werke, Staufen, Germany). Sodium dithionite (chemical grade; >87%, Merck, Darmstadt, Germany) was added to hydrolysates in the concentrations 5 and 10 mM. Additions of sodium sulphite to 5 and 10 mM were also performed. The additions were made at room temperature (23° C.) and the samples were kept for 10 min with stirring. The experiments were performed in duplicates.
The efficiency of the additions of the reducing agents was compared with alkali detoxification.
Ethanol measurements were performed by using an enzymatic kit (Ethanol UV-method, Boehringer Mannheim GmbH, Mannheim, Germany). Fermentation experiments were performed to evaluate the effectiveness of the additions and treatments. For comparison, untreated hydrolysates were included in the fermentation experiments as well as reference fermentations of sugar-based medium with an amount of fermentable sugars (i.e. glucose and mannose) corresponding to that in the hydrolysate samples. The fermentations were carried out using baker's yeast (Saccharomyces cerevisiae) (Jästbolaget AB, Rotebro, Sweden). The yeast inoculum was prepared in 750-mL cotton-plugged shake flasks with 300 mL YEPD medium ([…], 2% D-glucose). The flasks were inoculated and incubated with agitation at 30° C. for approximately 12 h. The cells were harvested in the late exponential growth phase by centrifugation (Hermla Z206A, Hermle Labortechnik GmbH, Wehingen, Germany) at 1,500 g for 5 min. The cells were resuspended in an appropriate amount of sterile water to achieve an inoculum consisting of 2.0 g/L (cell dry weight) in all fermentation vessels. The fermentation was carried out in 14 25-mL glass flasks equipped with magnets for stirring and sealed with rubber plugs pierced with cannulas for letting out carbon dioxide. The hydrolysate samples (23.75 mL), or alternatively the sugar solution for reference fermentations, were added to the fermentation flasks along with 0.5 mL of a nutrient solution (150 g/L yeast extract, 75 g/L (NH4)2HPO4, 3.75 g/L MgSO4.7 H2O, 238.2 g/L NaH2PO4.H2O), and 0.75 mL of yeast inoculum. The flasks were incubated at 30° C. in a water bath with magnetic stirring (IKA-Werke). Samples for measurement of sugars and ethanol were withdrawn during the fermentation. The glucose levels during the fermentation were estimated by using a glucometer (Glucometer Elite XL, Bayer AG, Leverkusen, Germany).

[2] = tested on: yeast Saccharomyces cerevisiae; assay: Simultaneous saccharification and fermentation (SSF) of spruce slurry; format: cell-based; details: for Ethanol concentration: after 70 hours
Experimental: Addition of sodium dithionite and sodium sulphite was tested in an SSF process. Spruce was pretreated as described in Example 1 above. The spruce slurry was adjusted to pH 5.4 with a 5 M solution of sodium hydroxide. Ten 250-mL shake flasks equipped with magnetic stirrer bars were filled with 100 g of spruce slurry. Sodium dithionite or sodium sulphite was added to the slurries to final concentrations of 7.5 and 10 mM. The additions were performed at room temperature (23° C.) for 10 min with stirring. Duplicate experiments were made. Cellulase and cellobiase preparations were prepared and added to the slurry using the enzyme activity loadings as described in Example 1 above. Further, the yeast inoculum was prepared according to Example 1 above. Inoculums were added to give a start concentration of 2.0 g/L (cell dry weight) in every flask. No source of extra nutrients was added. For comparison, two flasks with spruce slurry to which no reducing agents had been added were included in the experiment. The flasks were incubated at 35° C. for 69 h in a water bath with magnetic stirring. The flasks were sealed with Parafilm (Pechiney Plastic Packaging Company, Chicago, Ill., USA) to prevent evaporation of ethanol. Samples were withdrawn for analysis of ethanol according to Example 1 above.
A spruce slurry was prepared according to Examples 1 and 2 above. Different flasks were filled with 100 g each of the spruce slurry and were subjected to a SSF process according to Example 2 above, but with different amounts of dithionite and sulphite added. The produced ethanol was monitored during the fermentation. […]

[3] = tested on: yeast Saccharomyces cerevisiae; assay: Simultaneous saccharification and fermentation (SSF) of sugarcane bagass slurry; format: cell-based; details: 7.5 and 10 mM, FIG. 9
Experimental: SSF experiments were also performed with sugarcane bagass slurries. […] Reducing agents, dithionite and sulphite, respectively, were added 10 min prior to inoculum in concentrations of studied 7.5 and 10 mM. The ethanol concentration was measured after 13 and 45 hours according to the protocol described in Example 1.

[4] = tested on: yeast Saccharomyces cerevisiae; details: for Ethanol concentration / Productivity / Yield: 15.0 mM; for viability at 10000 µM: Saccharomyces cerevisiae, read-out: Viable cells; for Fermentability (glucose consumption): acid spruce hydrolysate
Experimental: A spruce slurry was prepared an subjected to acidic hydrolysis as described in Example 6. […] Sodium dithionite was added to different samples to concentrations of 2.5, 5, 7.5, 10, 12.5, and 15 mM. The treatments were performed at 21° C. for 5 min with stirring. In addition, treatments with 0.1% (7.9 mM) and 1% (79.3 mM) sodium sulphite were performed. […] Furthermore, a sugar solution (glucose 18 g/L, mannose 14 g/L) was prepared to evaluate if the effect of the sodium dithionite treatment was due to an effect on the hydrolysate or the ethanolic fermentation with yeast. Half of the sugar solution was treated with 10 mM sodium dithionite, whereas the rest was left untreated as a reference. The volumes of treated and untreated samples were equalized with water and the pH was adjusted to pH 5.5 prior to the fermentation. Fermentation was performed with the yeast Saccharomyces cerevisiae as described in the previous Examples.
Spruce hydrolysate samples were prepared as in Example 6.
Two samples were treated with DTT to 2 and 20 mM, respectively, two samples were treated with ascorbic acid to 10 and 100 mM, respectively and two samples were treated with glutathione to 1 and 10 mM, respectively.
The treatment time was 3 h for all samples and fermentation was performed as described in the previous Examples.

[5] = Fermentation of sugar solution treated with sodium dithionite; format: cell-based; details: Saccharomyces cerevisiae, Saccharomyces cerevisiae yeast cells in fermentation, read-out: Viable cells
[6] = tested on: yeast Saccharomyces cerevisiae; assay: Fermentation of sugar solution with model inhibitor coniferyl aldehyde; details: for viability at 10000 µM: Saccharomyces cerevisiae, read-out: Viable cells
Experimental: A sugar solution (glucose 18 g/L, mannose 14 g/L) with a coniferyl aldehyde concentration of 2.5 mM was prepared. Half of the solution was treated with 10 mM of sodium dithionite and the rest of the solution was left untreated as a reference. Fermentation was performed with the yeast Saccharomyces cerevisiae as described in the previous Examples.

[7] = acid spruce hydrolysate, 2.5-15 mM, Table 4
[8] = bagass hydrolysate, 6 h fermentation, 10 mM
[9] = spruce hydrolysate, 14 h fermentation, 10 mM

## O=S([O-])S(=O)[O-].[Na+].[Na+] [Dithionite, Sodium dithionite]
[1]; [8]
  Balanced ethanol yield: 0.28 g EtOH/Σglucose & mannose prior to detoxification
  Productivity: 3.9 g EtOH × L^−1 × h^−1
  Yield: 0.34 g EtOH/g consumed glucose & mannose
[1]; bagass hydrolysate, 6 h fermentation, FIG. 4
  Ethanol production: high ethanol production
[1]; spruce hydrolysate, 5 mM
  Glucose consumption rates and amounts of ethanol produced: substantial improvement
[1]; spruce hydrolysate, 10 mM
  Glucose consumption rates and amounts of ethanol produced: comparable to those of the reference fermentation
[1]; [9]
  Balanced ethanol yield: 0.34 g EtOH/Σglucose & mannose prior to detoxification
  Productivity: 2.5 g EtOH × L^−1 × h^−1
  Yield: 0.37 g EtOH/g consumed glucose & mannose
[2]; 2.5 mM
  Ethanol concentration: about 10 g/L
[2]; 5 mM
  Ethanol concentration: 35 to 40 g/L
[2]; 7.5 mM
  Ethanol concentration: highest ethanol production
[2]; 10 mM, FIG. 5
  Time after which ethanol formation leveled off: about 45 h
[2]; 10 mM, FIG. 8
  Improvement of ethanol production, dithionite versus sulphite: better improvement than the addition of sulphite
[2]; 10 mM
  Ethanol concentration: highest ethanol production
[2]; 15 mM
  Ethanol concentration: highest ethanol production
[2]; 20 mM
  Ethanol concentration: 35 to 40 g/L
[2]; 30 mM
  Ethanol concentration: about 30 g/L
[2]; 7.5 and 10 mM, FIG. 5
  Ethanol production compared to the untreated hydrolysate: higher ethanol production
[3]
  Fermentability (ethanol production after 13 and 45 hours): improved fermentability
[4]; 2.75 h
  Ethanol concentration: 5.07 g/L
  Productivity: 1.84 g EtOH × L^−1 × h^−1
  Yield: 0.37 g EtOH/g consumed glucose and mannose
[4]; 4.25 h
  Ethanol concentration: 9.81 g/L
  Productivity: 2.31 g EtOH × L^−1 × h^−1
  Yield: 0.44 g EtOH/g consumed glucose and mannose
[4]; 6.25 h
  Ethanol concentration: 14.59 g/L
  Productivity: 2.33 g EtOH × L^−1 × h^−1
  Yield: 0.47 g EtOH/g consumed glucose and mannose
[4]; 9.25 h
  Ethanol concentration: 15.47 g/L
  Productivity: 1.67 g EtOH × L^−1 × h^−1
  Yield: 0.49 g EtOH/g consumed glucose and mannose
[4]; 2.25 h
  viability at 10000 µM: 91%
[4]; 7 h
  viability at 10000 µM: 96.7 ± 2.5%
[4]; 15 mM, FIG. 11
  Fermentability (glucose consumption): fermented about as well as the NH4OH treated sample and the plain sugar solution
[4]; 2.5-15 mM, FIG. 10
  Fermentability (glucose consumption): improved fermentability
[5]; pH 5.5, fermentation time 2.25 h
  viability at 2.25 h, 10 mM: 80.8 ± 4.5%
[5]; pH 5.5, fermentation time 7 h
  viability at 7 h, 10 mM: 84.3 ± 2.9%
[6]; 2.25 h
  viability at 10000 µM: 76.7%
[6]; 7 h
  viability at 10000 µM: 75 ± 8%
[6]; sugar solution with coniferyl aldehyde (2.5 mM), sodium dithionite 10 mM, FIG. 12
  Glucose consumption rate: much higher
[7]
  Degradation of monosaccharide: No significant degradation
